The source made the active and inactive calls.
Legend:
[1] = A549 cell cytotoxicity, dose response, cytotoxicity control, plate reader, cherry-pick, antagonist series (AID 743412); type: functional, cell-based
[2] = MC4R antagonists, dose response, counter-screen for LGR2 antagonist project, cell-based, plate reader, cherry pick (AID 743444); type: functional;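 note: transfected HEK 293 cells stimulated with alpha-MSH peptide; potency of inhibitors of the alpha-MSH evoked signal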
[3] = HepG2 cell cytotoxicity, dose response, cytotoxicity control, plate reader, cherry-pick, antagonist series (AID 743416); type: functional, cell-based
[4] = LGR2 antagonists, dose response, cell-based, HEK293, CRE-luciferase reporter, cherry pick, set 2 (AID 743343); type: functional;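 note: transfected cells were stimulated with diluted bursicon conditioned medium after compound addition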
[5] = test system: HEK293; test: inhibitors of LMP1-driven NF-kB reporter, dose response, cell-based, HEK293, luciferase, cherry-pick (AID 588343); type: functional; conditions: Homo sapiens
[6] = ADAM10 inhibitors, peptide cleavage, dose response, biochemical, QFRET (AID 743254);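 note: ADAM10 enzyme with the DM2 quenched FRET peptide as substrate; EDANS fluorescence gain as the protease cuts the substrate; inhibitor potency against ADAM10 proteolytic activity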
[7] = target: Disintegrin and metalloproteinase domain-containing protein 17 (Homo sapiens, UniProt P78536); test: ADAM17 protease inhibitors, dose response, counter-screen for ADAM10 exosite inhibitor project, biochemical, quenched FRET substrate (AID 743253)
[8] = target: T1, fMet-Leu-Phe receptor (Homo sapiens, UniProt P21462); test: FPR ligands, dose response (AID 519); type: functional
T1 sequence (P21462 whole entry): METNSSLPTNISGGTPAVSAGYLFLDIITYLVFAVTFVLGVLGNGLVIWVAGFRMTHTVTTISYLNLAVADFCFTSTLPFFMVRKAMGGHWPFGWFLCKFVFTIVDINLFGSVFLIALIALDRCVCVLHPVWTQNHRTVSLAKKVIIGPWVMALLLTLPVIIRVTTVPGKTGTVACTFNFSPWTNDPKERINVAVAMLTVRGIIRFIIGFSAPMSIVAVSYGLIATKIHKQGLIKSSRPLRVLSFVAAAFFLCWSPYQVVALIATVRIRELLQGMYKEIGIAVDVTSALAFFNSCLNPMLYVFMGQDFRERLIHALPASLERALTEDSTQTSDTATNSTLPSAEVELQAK

[9] = target: Peroxisome proliferator-activated receptor gamma/Nuclear receptor coactivator 2 (Homo sapiens, UniProt P37231); test: (§1) TR-FRET dose response biochemical High Throughput Screening assay for agonists of the steroid receptor coactivator 2 (SRC-2) recruitment by the peroxisome proliferator-activated receptor gamma (PPAR gamma): non-selective agonists. [Related pubchem assays: 1297, 1032 ]; type: functional
[10] = target: Peroxisome proliferator-activated receptor gamma/Nuclear receptor coactivator 1 (Homo sapiens, UniProt P37231); test: as §1, with “1 (SRC-1)” for “2 (SRC-2)”, “assays (depositor defined):AID1300, AID1808, AID504735, AID631]” for “assays: 1297, 1032 ]”; type: protein assay
[11] = target: Peroxisome proliferator-activated receptor gamma/Nuclear receptor coactivator 3 (Homo sapiens, UniProt P37231); test: as §1, with “3 (SRC-3)” for “2 (SRC-2)”, “1301 (Confirmation screen.), 1048 (Primary screen.)]” for “1297, 1032 ]”; type: functional
[12] = cells; type: functional, cell-based
[13] = target: T2, Trace amine-associated receptor 1 (Homo sapiens, UniProt Q96RJ0); test: Fluorescence-based cell-based high throughput dose response assay to identify agonists of the human trace amine associated receptor 1 (TAAR1).; type: functional
T2 sequence (Q96RJ0 whole entry): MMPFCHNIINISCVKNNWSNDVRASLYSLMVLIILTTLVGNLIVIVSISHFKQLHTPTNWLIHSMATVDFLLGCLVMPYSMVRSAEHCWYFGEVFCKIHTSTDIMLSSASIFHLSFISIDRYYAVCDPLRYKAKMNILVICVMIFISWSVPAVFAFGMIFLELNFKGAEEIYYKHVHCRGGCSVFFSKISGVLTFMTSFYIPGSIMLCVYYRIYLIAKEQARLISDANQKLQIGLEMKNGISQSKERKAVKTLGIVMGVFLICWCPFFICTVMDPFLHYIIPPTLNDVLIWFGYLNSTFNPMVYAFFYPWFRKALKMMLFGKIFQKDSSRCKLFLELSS

[14] = target: T2, Trace amine-associated receptor 1; test: Counterscreen for agonists of the human trace amine associated receptor 1 (hTAAR1): Fluorescence-based cell-based high throughput dose response assay to identify hTAAR1 agonist that also desensitize TAAR1 receptor response.; type: functional
[15] = cells; type: functional, cell-based; remark: listed apart in the source
[16] = target: DNA dC->dU-editing enzyme APOBEC-3G (Homo sapiens, UniProt Q9HC16); test: Dose Response confirmation of small molecule APOBEC3G DNA Deaminase Inhibitors via a fluorescence-based single-stranded DNA deaminase assay. [Related pubchem assays (depositor defined):AID493012, AID493028]; type: functional

Chain of Disintegrin and metalloproteinase domain-containing protein 17 (P78536 whole entry, the tested form may be a part): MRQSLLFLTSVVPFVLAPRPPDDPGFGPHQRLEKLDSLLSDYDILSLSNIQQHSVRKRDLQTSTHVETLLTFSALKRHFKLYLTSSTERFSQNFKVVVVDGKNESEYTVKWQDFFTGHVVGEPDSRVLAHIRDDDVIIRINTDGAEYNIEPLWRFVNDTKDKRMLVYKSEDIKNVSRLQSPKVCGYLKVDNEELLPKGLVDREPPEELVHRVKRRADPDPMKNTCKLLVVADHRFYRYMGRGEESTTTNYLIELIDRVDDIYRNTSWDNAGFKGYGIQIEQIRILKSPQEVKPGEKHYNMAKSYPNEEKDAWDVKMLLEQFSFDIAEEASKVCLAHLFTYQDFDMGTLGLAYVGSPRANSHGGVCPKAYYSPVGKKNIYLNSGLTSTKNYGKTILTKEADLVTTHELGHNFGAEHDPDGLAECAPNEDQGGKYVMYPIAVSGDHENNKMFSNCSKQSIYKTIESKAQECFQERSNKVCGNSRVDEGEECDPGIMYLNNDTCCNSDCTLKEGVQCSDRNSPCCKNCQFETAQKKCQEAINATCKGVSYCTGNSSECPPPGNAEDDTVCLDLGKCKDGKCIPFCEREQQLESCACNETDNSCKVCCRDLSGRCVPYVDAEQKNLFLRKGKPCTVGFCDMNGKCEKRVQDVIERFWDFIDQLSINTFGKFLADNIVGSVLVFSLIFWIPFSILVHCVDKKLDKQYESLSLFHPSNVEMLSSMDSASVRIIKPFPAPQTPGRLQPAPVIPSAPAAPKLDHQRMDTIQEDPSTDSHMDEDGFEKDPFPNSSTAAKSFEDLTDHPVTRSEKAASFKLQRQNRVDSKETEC
Chain of Peroxisome proliferator-activated receptor gamma/Nuclear receptor coactivator 2 (P37231 whole entry): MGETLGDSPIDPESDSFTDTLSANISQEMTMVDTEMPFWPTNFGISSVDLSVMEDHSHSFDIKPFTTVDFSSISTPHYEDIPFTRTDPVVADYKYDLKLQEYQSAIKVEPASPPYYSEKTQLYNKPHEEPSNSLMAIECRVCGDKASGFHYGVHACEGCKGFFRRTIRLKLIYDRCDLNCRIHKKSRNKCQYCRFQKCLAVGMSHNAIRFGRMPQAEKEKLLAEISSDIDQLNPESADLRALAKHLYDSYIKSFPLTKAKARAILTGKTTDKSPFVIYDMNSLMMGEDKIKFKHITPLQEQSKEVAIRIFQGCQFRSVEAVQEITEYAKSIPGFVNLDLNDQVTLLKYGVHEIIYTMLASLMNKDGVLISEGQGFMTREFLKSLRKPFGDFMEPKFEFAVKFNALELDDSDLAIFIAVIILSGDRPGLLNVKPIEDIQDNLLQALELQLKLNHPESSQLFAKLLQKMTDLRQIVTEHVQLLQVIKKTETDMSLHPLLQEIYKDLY
Chain of Peroxisome proliferator-activated receptor gamma/Nuclear receptor coactivator 2 (Q15596 whole entry, further chain): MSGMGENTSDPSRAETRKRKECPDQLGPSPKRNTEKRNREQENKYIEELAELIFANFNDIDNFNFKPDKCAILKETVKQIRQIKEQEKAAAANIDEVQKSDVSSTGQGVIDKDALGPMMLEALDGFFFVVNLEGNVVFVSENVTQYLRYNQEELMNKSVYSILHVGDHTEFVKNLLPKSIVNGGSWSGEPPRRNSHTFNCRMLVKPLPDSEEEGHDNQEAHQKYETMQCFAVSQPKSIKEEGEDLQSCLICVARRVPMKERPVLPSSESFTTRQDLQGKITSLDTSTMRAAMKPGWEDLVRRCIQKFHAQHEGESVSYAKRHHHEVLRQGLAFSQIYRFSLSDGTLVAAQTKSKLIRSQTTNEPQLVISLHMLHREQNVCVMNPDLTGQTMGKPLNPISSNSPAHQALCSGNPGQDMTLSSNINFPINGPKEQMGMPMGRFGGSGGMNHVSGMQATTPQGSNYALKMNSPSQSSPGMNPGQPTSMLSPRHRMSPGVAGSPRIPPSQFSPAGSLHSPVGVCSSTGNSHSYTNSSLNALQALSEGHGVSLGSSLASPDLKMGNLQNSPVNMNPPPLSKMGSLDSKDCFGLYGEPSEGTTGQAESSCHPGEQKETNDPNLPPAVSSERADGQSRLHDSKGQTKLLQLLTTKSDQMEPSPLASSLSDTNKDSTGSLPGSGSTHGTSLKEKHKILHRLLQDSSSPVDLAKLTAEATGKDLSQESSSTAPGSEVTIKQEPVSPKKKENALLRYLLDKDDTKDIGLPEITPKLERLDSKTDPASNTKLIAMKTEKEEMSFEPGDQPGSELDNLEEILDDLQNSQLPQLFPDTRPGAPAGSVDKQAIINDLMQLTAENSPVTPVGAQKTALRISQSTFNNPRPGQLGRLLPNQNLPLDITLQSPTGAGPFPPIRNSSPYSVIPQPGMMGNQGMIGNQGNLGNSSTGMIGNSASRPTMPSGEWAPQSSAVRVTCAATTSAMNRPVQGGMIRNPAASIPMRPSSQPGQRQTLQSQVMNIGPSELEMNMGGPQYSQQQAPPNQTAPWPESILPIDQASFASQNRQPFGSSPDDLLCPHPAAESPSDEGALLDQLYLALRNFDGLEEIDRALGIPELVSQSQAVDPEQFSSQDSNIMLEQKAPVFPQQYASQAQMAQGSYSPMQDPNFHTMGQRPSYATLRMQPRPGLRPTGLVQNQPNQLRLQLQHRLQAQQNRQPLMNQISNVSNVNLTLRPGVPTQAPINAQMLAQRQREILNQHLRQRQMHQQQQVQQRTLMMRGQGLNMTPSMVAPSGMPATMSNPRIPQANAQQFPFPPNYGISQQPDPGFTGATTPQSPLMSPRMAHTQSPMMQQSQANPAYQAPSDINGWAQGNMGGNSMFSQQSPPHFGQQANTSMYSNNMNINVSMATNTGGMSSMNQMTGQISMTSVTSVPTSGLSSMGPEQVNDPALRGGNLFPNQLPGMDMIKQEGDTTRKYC
Chain of Peroxisome proliferator-activated receptor gamma/Nuclear receptor coactivator 1 (P37231 whole entry): as the sequence (P37231 whole entry) above
Chain of Peroxisome proliferator-activated receptor gamma/Nuclear receptor coactivator 1 (Q15788 whole entry, further chain): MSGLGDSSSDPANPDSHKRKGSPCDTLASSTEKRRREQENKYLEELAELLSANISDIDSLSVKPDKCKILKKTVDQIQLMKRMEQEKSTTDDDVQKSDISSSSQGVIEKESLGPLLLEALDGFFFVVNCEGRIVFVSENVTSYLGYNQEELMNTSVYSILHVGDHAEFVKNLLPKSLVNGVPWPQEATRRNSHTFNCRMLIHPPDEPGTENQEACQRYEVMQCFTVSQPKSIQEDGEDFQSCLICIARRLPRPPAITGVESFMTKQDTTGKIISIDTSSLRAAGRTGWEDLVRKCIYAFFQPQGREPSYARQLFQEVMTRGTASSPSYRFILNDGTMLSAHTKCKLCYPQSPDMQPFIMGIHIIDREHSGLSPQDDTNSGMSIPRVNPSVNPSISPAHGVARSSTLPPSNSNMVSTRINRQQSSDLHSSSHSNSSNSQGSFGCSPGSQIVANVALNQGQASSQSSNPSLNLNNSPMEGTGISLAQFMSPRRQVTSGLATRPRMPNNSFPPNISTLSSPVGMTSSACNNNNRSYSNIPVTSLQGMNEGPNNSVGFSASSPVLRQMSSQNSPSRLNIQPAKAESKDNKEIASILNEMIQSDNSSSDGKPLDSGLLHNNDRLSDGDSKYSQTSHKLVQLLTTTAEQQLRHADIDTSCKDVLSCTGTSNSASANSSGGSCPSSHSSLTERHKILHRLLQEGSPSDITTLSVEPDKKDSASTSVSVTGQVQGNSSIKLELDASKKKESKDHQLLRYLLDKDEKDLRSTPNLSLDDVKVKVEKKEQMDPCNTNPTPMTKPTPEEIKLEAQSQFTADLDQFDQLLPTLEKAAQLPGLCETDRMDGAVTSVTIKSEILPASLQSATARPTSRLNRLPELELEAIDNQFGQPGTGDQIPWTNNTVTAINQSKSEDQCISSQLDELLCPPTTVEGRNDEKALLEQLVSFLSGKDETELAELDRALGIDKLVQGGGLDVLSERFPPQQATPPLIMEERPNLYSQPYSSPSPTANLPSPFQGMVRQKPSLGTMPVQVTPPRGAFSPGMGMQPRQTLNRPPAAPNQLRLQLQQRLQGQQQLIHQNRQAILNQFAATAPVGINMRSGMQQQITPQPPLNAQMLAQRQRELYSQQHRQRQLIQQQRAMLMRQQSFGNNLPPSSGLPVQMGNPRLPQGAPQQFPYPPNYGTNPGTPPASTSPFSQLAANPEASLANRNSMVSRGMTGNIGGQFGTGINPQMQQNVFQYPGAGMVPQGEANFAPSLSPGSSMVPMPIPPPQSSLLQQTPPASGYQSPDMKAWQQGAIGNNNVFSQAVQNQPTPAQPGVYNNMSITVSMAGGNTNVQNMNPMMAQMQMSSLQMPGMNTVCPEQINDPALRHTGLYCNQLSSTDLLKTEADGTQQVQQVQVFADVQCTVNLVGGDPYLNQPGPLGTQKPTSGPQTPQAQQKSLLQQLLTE

## Cc1ccc(C(=O)NCCc2cccs2)cc1
[1]
  AC50: > 52 µM (inactive)
[2]
  AC50: 3.74 µM (active)
[3]
  AC50: > 52 µM (inactive)
[4]
  AC50: 3.13 µM (active)
[5]
  AC50: 2.28 µM (active)

## N#Cc1c(NC(=O)CCn2cnc3ccccc3c2=O)oc(-c2ccccc2)c1-c1ccccc1
[6]
  IC50: > 69.5 µM (inactive)
[7]
  IC50: > 69.5 µM (inactive)

## COc1cccc(C2C(C(=O)c3ccc(OC)c(OC)c3)=C(O)C(=O)N2c2cc(C)on2)c1 (stereo unspecified)
[8]
  Ki: > 66.7 µM (inactive)
[9]
  EC50: > 79.4 µM (not active)
[10]
  EC50: > 79.4 µM (inactive)
[11]
  EC50: > 79.4 µM (not active)

## CC/C(NCCc1ccccc1)=C1/C(=O)NC(=O)N(C2CCCCC2)C1=O
[12]
  EC50: > 29.9 µM (inactive)
[13]
  EC50: 2.87 µM (active)
[14]
  IC50: 6.23 µM (active)
[15]
  IC50: > 29.9 µM (inactive)

## Cc1cccc(C(CC(=O)NCCc2ccccc2)c2ccccc2)c1O (stereo unspecified)
[12]
  EC50: > 29.9 µM (inactive)
[13]
  EC50: 3.5 µM (active)
[14]
  IC50: 4.62 µM (active)
[15]
  IC50: > 29.9 µM (inactive)

## CCN(CC)c1ccc(NC(=O)COc2ccccc2C)cc1S(=O)(=O)Nc1ccccc1OC
[16]
  IC50: 70.1 µM (active)
[6]
  IC50: > 69.5 µM (inactive)
[7]
  IC50: > 69.5 µM (inactive)

## CN(CCc1ccccc1)c1cc2c(c3c1ccn3C)C1CCC2O1 (stereo unspecified)
[12]
  EC50: > 29.9 µM (inactive)
[13]
  EC50: 1.18 µM (active)
[14]
  IC50: 5.22 µM (active)
[15]
  IC50: > 29.9 µM (inactive)
